Test results from US20240277658A1, “NLRP3 ACTIVATORS FOR USE IN THE TREATMENT OF INFECTIOUS DISEASES OR CANCER BY ACTIVATING NLRP3 INFLAMMASOME” (ALBERT-LUDWIGS-UNIVERSITÄT FREIBURG, priority 2020, published 2024).
“And” between values parts separate entries of the source, which are not always exact repeats. Equal entries are not always repeated. Structures can show the parent of a compound that is named as a salt. Where two headings read alike, the source gives them in different places.

How the values were obtained:
BMDCs = assay: LDH release (lytic cell death, pyroptosis) from LPS-primed BMDCs; format: cell-based, mouse; conditions: for Average (% positive control): LDH release; for cytotoxicity at 50 µM / cytotoxicity at 5 µM / cytotoxicity at 20 µM / cytotoxicity at 40 µM / cytotoxicity at 80 µM / cytotoxicity at 18.75 µM / cytotoxicity at 37.5 µM / cytotoxicity at 75 µM: Mus musculus, BMDC
In short: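 LDH released into medium, detected colorimetrically, served as the pyroptosis read-out in triplicate. LPS-primed (50 ng ml^−1, 3 h) murine bone marrow-derived dendritic cells received test compounds, typically 50 μM, or nigericin (5 μM), R837 or CL097 (100 μM) for 3 hours.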

NLRP3 inflammasome = molecular target: T1, NLRP3 inflammasome (Mus musculus, UniProt Q8R4B8); assay: IL-1β release from LPS-primed BMDCs (ELISA) as readout of NLRP3 inflammasome activation; format: cell-based
T1 construct: endogenous in cells; host or cells: primary mouse bone marrow-derived dendritic cells (BMDCs), LPS-primed
In short: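 NLRP3 inflammasome activation was read out as IL-1β released into the supernatant, measured by ELISA. Murine BMDCs were primed with LPS (50 ng ml^−1, 3 hours), then incubated with compounds for 3 hours, with each condition run in three technical replicates. Nigericin at 5 μM acted as the positive control activator, and IL-1β release was also expressed as a percentage of that control.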

[1] = compound 50 μM, positive control nigericin 5 μM
[2] = compound 50 μM, LPS-primed BMDCs, read-out: Average LDH release (% of max.)
[3] = single replicates, compound 50 μM, LPS-primed BMDCs, read-out: LDH release (% of max.)
[4] = IL-1β release, compound 50 μM, positive control nigericin 5 μM
[5] = compound 50 μM, LPS-primed BMDCs
[6] = single replicates, compound 50 μM, LPS-primed BMDCs

T1 sequence (Q8R4B8 whole entry): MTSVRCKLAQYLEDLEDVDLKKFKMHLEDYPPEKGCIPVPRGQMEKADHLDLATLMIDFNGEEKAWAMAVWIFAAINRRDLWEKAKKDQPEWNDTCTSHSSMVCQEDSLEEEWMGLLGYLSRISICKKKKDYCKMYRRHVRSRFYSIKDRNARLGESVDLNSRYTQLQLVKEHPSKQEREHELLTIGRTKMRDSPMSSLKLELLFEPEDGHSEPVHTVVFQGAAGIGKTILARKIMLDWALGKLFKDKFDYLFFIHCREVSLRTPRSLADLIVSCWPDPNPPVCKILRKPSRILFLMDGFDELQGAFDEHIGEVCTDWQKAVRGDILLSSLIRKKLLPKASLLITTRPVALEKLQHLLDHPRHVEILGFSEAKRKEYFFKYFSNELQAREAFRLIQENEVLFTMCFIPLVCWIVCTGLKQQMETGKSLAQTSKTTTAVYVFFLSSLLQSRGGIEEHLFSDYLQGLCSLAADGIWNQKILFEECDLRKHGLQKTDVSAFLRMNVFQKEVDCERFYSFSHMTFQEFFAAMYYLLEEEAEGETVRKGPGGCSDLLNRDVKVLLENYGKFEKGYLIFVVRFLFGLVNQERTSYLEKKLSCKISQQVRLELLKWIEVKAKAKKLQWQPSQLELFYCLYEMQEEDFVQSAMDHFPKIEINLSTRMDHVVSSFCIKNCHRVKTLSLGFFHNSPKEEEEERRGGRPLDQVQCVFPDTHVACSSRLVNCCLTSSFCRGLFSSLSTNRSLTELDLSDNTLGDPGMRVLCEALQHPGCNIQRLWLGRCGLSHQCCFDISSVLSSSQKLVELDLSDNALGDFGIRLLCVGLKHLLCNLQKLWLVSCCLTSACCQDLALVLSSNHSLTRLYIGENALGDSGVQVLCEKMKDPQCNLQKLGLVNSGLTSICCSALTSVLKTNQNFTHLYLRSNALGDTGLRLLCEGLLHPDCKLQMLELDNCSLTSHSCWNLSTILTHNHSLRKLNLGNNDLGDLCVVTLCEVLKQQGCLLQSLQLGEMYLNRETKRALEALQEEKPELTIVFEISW

Row | SMILES | Average (% positive control) (NLRP3 inflammasome; [4]) | Average IL-1β (NLRP3 inflammasome; [5]) [ng/mL] | Average (% positive control) (BMDCs; [1]) | cytotoxicity at 50 µM (BMDCs; [2]) [%] | cytotoxicity at 50 µM (BMDCs; [3]) [%] | IL-1β (NLRP3 inflammasome; [6]) | other results
1 | O=C(Nc1ccccc1)Nc1cccc(Br)c1 [L01.020, 3-(3-bromophenyl)-1-phenylurea] | 3.256 | 0.233 | 14.712 | 10.8 | 11.6 | 0.236 ng/mL and 0.231 ng/mL and 0.233 ng/mL | 
2 | CO[C@@H]1C[C@@H](C[C@H]2CC[C@H](C)[C@H]([C@@H](C)C(=O)O)O2)O[C@]2(O[C@](C)([C@H]3CC[C@@](C)([C@@H]4O[C@@H]([C@H]5O[C@@](O)(CO)[C@H](C)C[C@@H]5C)C[C@@H]4C)O3)C[C@H]2C)[C@@H]1C [Nigericin, Nigericin sodium salt, reference compound] |  |  |  |  |  |  | Average (% positive control) (BMDCs; 5 μM, positive control nigericin 5 μM): 100.000 % positive control; cytotoxicity at 5 µM (BMDCs; 5 μM, LPS-primed BMDCs, read-out: Average LDH release (% of max.)): 73.2%; cytotoxicity at 5 µM (BMDCs; section 1.3, 5 μM, read-out: Average LDH release (% of max.)): 53.7%; cytotoxicity at 5 µM (BMDCs; single replicates, 5 μM, LPS-primed BMDCs, read-out: LDH release (% of max.)): 61.9%; Average (% positive control) (BMDCs; section 1.3, 5 μM, positive control nigericin 5 μM): 100.000 % positive control; Average IL-1β (NLRP3 inflammasome; 5 μM, LPS-primed BMDCs): 7.168 ng/mL; Average (% positive control) (NLRP3 inflammasome; IL-1β release, 5 μM, positive control nigericin 5 μM): 100.000 % positive control; Average IL-1β (NLRP3 inflammasome; section 1.3, 5 μM): 3.151 ng/mL; Average (% positive control) (NLRP3 inflammasome; section 1.3, IL-1β release, 5 μM, positive control nigericin 5 μM): 100.000 % positive control; IL-1β (NLRP3 inflammasome; section 1.3, single replicates, 5 μM, sodium salt): 3.007 ng/mL and 3.127 ng/mL and 3.318 ng/mL; IL-1β (NLRP3 inflammasome; single replicates, 5 μM, LPS-primed BMDCs, sodium salt): 6.834 ng/mL and 6.400 ng/mL and 7.872 ng/mL and 6.518 ng/mL and 7.890 ng/mL and 7.496 ng/mL
3 | CC(C)c1ccc(NC(=O)Nc2ccccc2)cc1 [L01.047, 1-phenyl-3-[4-(propan-2-yl)phenyl]urea] | 7.117 | 0.510 | 16.514 | 12.1 | 12.1 | 0.505 ng/mL and 0.513 ng/mL and 0.512 ng/mL | 
4 | O=C(Nc1ccccc1)Nc1ccc2ncc(Br)cc2c1 [JB004, 1-(3-bromoquinolin-6-yl)-3-phenylurea] |  |  |  |  |  |  | Average (% positive control) (BMDCs; 20 μM, positive control EN22 20 μM): 39.589 % positive control; Average (% positive control) (BMDCs; 40 μM, positive control EN22 20 μM): 51.749 % positive control; Average (% positive control) (BMDCs; 80 μM, positive control EN22 20 μM): 68.244 % positive control; cytotoxicity at 20 µM (BMDCs; 20 μM, individual replicate values, read-out: LDH release (% of max.)): 31%; cytotoxicity at 20 µM (BMDCs; 20 μM, read-out: Average LDH release (% of max.)): 21.1%; cytotoxicity at 40 µM (BMDCs; 40 μM, individual replicate values, read-out: LDH release (% of max.)): 25.6%; cytotoxicity at 40 µM (BMDCs; 40 μM, read-out: Average LDH release (% of max.)): 27.6%; cytotoxicity at 80 µM (BMDCs; 80 μM, individual replicate values, read-out: LDH release (% of max.)): 34.3%; cytotoxicity at 80 µM (BMDCs; 80 μM, read-out: Average LDH release (% of max.)): 36.4%; Average IL-1β (NLRP3 inflammasome; 20 μM): 0.971 ng/mL; IL-1β (NLRP3 inflammasome; 20 μM, individual replicate values): 0.966 ng/mL and 0.765 ng/mL and 1.182 ng/mL; Average IL-1β (NLRP3 inflammasome; 40 μM): 1.507 ng/mL; IL-1β (NLRP3 inflammasome; 40 μM, individual replicate values): 1.350 ng/mL and 1.479 ng/mL and 1.691 ng/mL; Average IL-1β (NLRP3 inflammasome; 80 μM): 1.657 ng/mL; IL-1β (NLRP3 inflammasome; 80 μM, individual replicate values): 1.684 ng/mL and 1.413 ng/mL and 1.876 ng/mL; Average (% positive control) (NLRP3 inflammasome; IL-1β, 20 μM, positive control EN22): 49.601 % positive control; Average (% positive control) (NLRP3 inflammasome; IL-1β, 40 μM, positive control EN22): 76.971 % positive control; Average (% positive control) (NLRP3 inflammasome; IL-1β, 80 μM, positive control EN22): 84.675 % positive control
5 | COc1ccc(NC(=O)Nc2ccccc2)cc1Cl [L01.026, 3-(3-chloro-4-methoxy-phenyl)-1-phenylurea] | 6.911 | 0.495 | 14.776 | 10.8 | 9.23 | 0.452 ng/mL and 0.473 ng/mL and 0.562 ng/mL | 
6 | CN(C)Cc1ccc(NC(=O)Nc2ccccc2)cc1 [L01.121, 3-{4-[(dimethylamino)-methyl]phenyl}-1-phen-ylurea] | 0.906 | 0.065 | 11.907 | 8.71 | 7.8 | 0.066 ng/mL and 0.068 ng/mL and 0.060 ng/mL | 
7 | Cc1ccc(-c2noc(CN3C(=O)CN(c4ccccc4)C3=O)n2)cc1 [L01.127, 3-{[3-(4-methylphenyl)-1,2,4-oxadiazol-5-yl]-methyl}-1-phenylimid-azolidine-2,4-dione] | 6.538 | 0.469 | 14.301 | 10.5 | 11 | 0.490 ng/mL and 0.475 ng/mL and 0.441 ng/mL | 
8 | O=C(Nc1cccc(Cl)c1)Nc1ccc([N+](=O)[O-])cc1Cl [TCMDC-143175, 3-(2-chloro-4-nitrophen-yl)-1-(3-chlorophenyl)-urea] |  |  |  |  |  |  | cytotoxicity at 18.75 µM (BMDCs; section 1.4, 18.75 μM, read-out: Average LDH release (% of max.)): 35.5%; cytotoxicity at 37.5 µM (BMDCs; section 1.4, 37.5 μM, read-out: Average LDH release (% of max.)): 74.7%; cytotoxicity at 75 µM (BMDCs; section 1.4, 75 μM, read-out: Average LDH release (% of max.)): 91.4%; cytotoxicity at 18.75 µM (BMDCs; section 1.4, single replicates, 18.75 μM, read-out: LDH release (% of max.)): 35.3%; cytotoxicity at 37.5 µM (BMDCs; section 1.4, single replicates, 37.5 μM, read-out: LDH release (% of max.)): 72.8%; cytotoxicity at 75 µM (BMDCs; section 1.4, single replicates, 75 μM, read-out: LDH release (% of max.)): 91.5%; Average (% positive control) (BMDCs; section 1.4, 18.75 μM, positive control EN22 18.75 μM): 49.754 % positive control; Average (% positive control) (BMDCs; section 1.4, 37.5 μM, positive control EN22 18.75 μM): 104.647 % positive control; Average (% positive control) (BMDCs; section 1.4, 75 μM, positive control EN22 18.75 μM): 128.113 % positive control; Average IL-1β (NLRP3 inflammasome; 18.75 μM): 0.105 ng/mL; IL-1β (NLRP3 inflammasome; 18.75 μM, individual replicate values): 0.102 ng/mL and 0.104 ng/mL and 0.110 ng/mL; Average IL-1β (NLRP3 inflammasome; 37.5 μM): 0.291 ng/mL; IL-1β (NLRP3 inflammasome; 37.5 μM, individual replicate values): 0.309 ng/mL and 0.275 ng/mL and 0.290 ng/mL; Average IL-1β (NLRP3 inflammasome; 75 μM): 0.417 ng/mL; IL-1β (NLRP3 inflammasome; 75 μM, individual replicate values): 0.423 ng/mL and 0.381 ng/mL and 0.446 ng/mL; Average (% positive control) (NLRP3 inflammasome; IL-1β, 18.75 μM, positive control EN22 18.75 μM): 1.666 % positive control; Average (% positive control) (NLRP3 inflammasome; IL-1β, 37.5 μM, positive control EN22 18.75 μM): 4.609 % positive control; Average (% positive control) (NLRP3 inflammasome; IL-1β, 75 μM, positive control EN22 18.75 μM): 6.592 % positive control

Now from value to molecule, other results behind:

Row | Average (% positive control) (NLRP3 inflammasome; [4]) | Average IL-1β (NLRP3 inflammasome; [5]) [ng/mL] | SMILES | Average (% positive control) (BMDCs; [1]) | cytotoxicity at 50 µM (BMDCs; [2]) [%] | cytotoxicity at 50 µM (BMDCs; [3]) [%] | IL-1β (NLRP3 inflammasome; [6]) | other results
9 | 1.584 | 0.114 | O=C(NCc1nc(-c2ccsc2)no1)Nc1cc(Cl)cc(Cl)c1 [L01.115, 1-(3,5-dichlorophenyl)-3-{[3-(thiophen-3-yl)-1,2,4-oxadiazol-5-yl]-methyl}urea] | 30.346 | 22.2 | 23.6 | 0.122 ng/mL and 0.108 ng/mL and 0.111 ng/mL | 
10 | 4.189 | 0.300 | O=C1CN(c2ccccc2)C(=O)N1Cc1nc(-c2ccc(Cl)cc2)no1 [L01.049, 3-{[3-(4-chlorophenyl)-1,2,4-oxadiazol-5-yl]-methyl}-1-phenylimid-azolidine-2,4-dione] | 16.093 | 11.8 | 12.6 | 0.330 ng/mL and 0.251 ng/mL and 0.319 ng/mL | 
11 | 1.044 | 0.075 | O=C(Nc1cccc(Cl)c1)N1CCOCC1c1nc(-c2cccs2)no1 (centres unmarked) [L01.090, N-(3-chlorophenyl)-3-[3-(thiophen-2-yl)-1,2,4-oxadiazol-5-yl]morph-oline-4-carboxamide] | 20.610 | 15.1 | 15.3 | 0.079 ng/mL and 0.077 ng/mL and 0.069 ng/mL | 
12 | 3.589 | 0.257 | O=C(NCc1nc(-c2cccs2)no1)Nc1ccccc1 [L01.087, 1-phenyl-3-{[3-(thio-phen-2-yl)-1,2,4-oxadiazol-5-yl]meth-yl}urea] | 9.562 | 7 | 6.79 | 0.237 ng/mL and 0.239 ng/mL and 0.296 ng/mL | 
